# Laboratory results taken from patent publication US20220047507A1, “MELFLUFEN DOSAGE REGIMENS FOR CANCER” (ONCOPEPTIDES AB, priority 2015, published 2022).
# Key:
# [1] = test system: relapsed-refractory multiple myeloma (RRMM) patients; experiment: Safety in patients with RRMM, Example 2b, time point (bii); assay type: in vivo, human
# Procedure: Example 2: An open label single arm extension on the dose of 40 mg over 30 minutes of Example 1. Intravenous melflufen was administered over 30 minutes on Day 1 of a 21-day cycle or 28-day cycle (in combination with 40 mg dexamethasone (oral or intravenous) treatment on Days 1, 8 and 15) for at least 2 cycles, and up to the stated number of cycles. The cycle length was extended during the Example 2 Clinical Trial from 21 to 28 days per a protocol amendment to allow for a better recovery of neutrophils and thrombocytes before a new cycle is initiated.
# Dose reductions from 40 mg to 25 mg melflufen for patients in the trial was possible in connection with adverse effects of thrombocytopenia/neutropenia.
# Example 2a results are from a data cut-off of time point (a). Example 2b results are from a data cut-off of time point (bi) for the efficacy data, which was approximately 12 months after time point (a); and from a data cut-off of time point (bii) for the safety data, which was approximately 10 months after time point (a).
# By the data cut-off point for safety data (time point (bii)) 40 patients has been dosed with 183 doses of melflufen hydrochloride 40 mg over 30 minutes. A total of 11 patients had dose reductions from 40 mg to 25 mg melflufen during the study. All dose reductions were in connection with AEs of thrombocytopenia/neutropenia. Seven (7) patients (64%) had dose reductions in connection to thrombocytopenia, 3 patients to neutropenia (27%) and 1 patient (9%) to both thrombocytopenia and neutropenia.
# [2] = test system: primary MM cells from patients; conditions: in vitro, incl. patients relapsing after bortezomib, lenalidomide, dexamethasone; cited from earlier work
# [3] = 40 mg melflufen (+dex) treated patients
# [4] = 40 mg treated patients, Example 2b
# [5] = 40 mg, Example 2b N = 40, listed as melflufen hydrochloride
# [6] = Cycle length 21 days, 30 patients, 87 cycles
# [7] = Cycle length 28 days, 10 patients, 24 cycles
# [8] = of the 11 patients with dose reductions
# [9] = of the 40 safety evaluable patients
smiles,measurement,setting,value
"CCOC(=O)[C@H](Cc1ccc(F)cc1)NC(=O)[C@@H](N)Cc1ccc(N(CCCl)CCCl)cc1.Cl [melflufen, L-Melphalanyl-4-fluoro-L-phenylalanine ethyl ester]",Grade 3 and 4 febrile neutropenia regardless of relationship,[1]; [3],5%
same,Grade 3 and 4 lower respiratory tract infection regardless of relationship,[1]; [3],2%
same,"Grade 3 and 4 lower respiratory tract infection regardless of relationship, n patients",[1]; [3],1
same,"Grade 3 and 4 neutropenia regardless of relationship, n patients",[1]; [3],23
same,Grade 3 and 4 parainfluenza virus infection regardless of relationship,[1]; [3],2%
same,"Grade 3 and 4 parainfluenza virus infection regardless of relationship, n patients",[1]; [3],1
same,Grade 3 and 4 pneumonia regardless of relationship,[1]; [3],10%
same,Grade 3/4 hyperglycemia (reported as treatment-related to dexamethasone),[1]; [4],10%
same,"Grade 3/4 hyperglycemia (reported as treatment-related to dexamethasone), n patients",[1]; [4],4
same,Serious TEAE related to melflufen: Diarrhoea,"[1]; 40 mg, Example 2b",(5) %
same,"Serious TEAE related to melflufen: Diarrhoea, number of patients","[1]; 40 mg, Example 2b",2
same,Serious TEAE related to melflufen: Escherichia coli sepsis,"[1]; 40 mg, Example 2b",(2.5) %
same,"Serious TEAE related to melflufen: Escherichia coli sepsis, number of patients","[1]; 40 mg, Example 2b",1
same,Serious TEAE related to melflufen: Febrile Neutropenia,"[1]; 40 mg, Example 2b",(5) %
same,"Serious TEAE related to melflufen: Febrile Neutropenia, number of patients","[1]; 40 mg, Example 2b",2
same,Serious TEAE related to melflufen: Neutropenia,"[1]; 40 mg, Example 2b",(5) %
same,"Serious TEAE related to melflufen: Neutropenia, number of patients","[1]; 40 mg, Example 2b",2
same,Serious TEAE related to melflufen: Pneumonia,"[1]; 40 mg, Example 2b",(10) %
same,"Serious TEAE related to melflufen: Pneumonia, number of patients","[1]; 40 mg, Example 2b",4
same,Serious TEAE related to melflufen: Pyrexia,"[1]; 40 mg, Example 2b",(5) %
same,"Serious TEAE related to melflufen: Pyrexia, number of patients","[1]; 40 mg, Example 2b",2
same,"anemia, all grades, regardless of relationship","[1]; 40 mg, Example 2b",65%
same,"asthenia, all grades, regardless of relationship","[1]; 40 mg, Example 2b",35%
same,"diarrhoea, all grades, regardless of relationship","[1]; 40 mg, Example 2b",25%
same,"nausea, all grades, regardless of relationship","[1]; 40 mg, Example 2b",28%
same,"neutropenia, all grades, regardless of relationship","[1]; 40 mg, Example 2b",65%
same,"pyrexia, all grades, regardless of relationship","[1]; 40 mg, Example 2b",43%
same,"thrombocytopenia, all grades, regardless of relationship","[1]; 40 mg, Example 2b",73%
same,"Anemia, treatment related ≥grade 3","[1]; 40 mg, Example 2b N = 40",43%
same,"Any treatment-related grade 3 and/or grade 4, grade 4","[1]; 40 mg, Example 2b N = 40",(50) %
same,"Any treatment-related grade 3 and/or grade 4, ≥grade 3","[1]; 40 mg, Example 2b N = 40",85%
same,"Asthenia, treatment related ≥grade 3","[1]; 40 mg, Example 2b N = 40",(5) %
same,"Blood and lymphatic system disorders, treatment related grade 4","[1]; 40 mg, Example 2b N = 40",(50) %
same,"Blood and lymphatic system disorders, treatment related ≥grade 3","[1]; 40 mg, Example 2b N = 40",(82.5) %
same,"Fatigue, treatment related ≥grade 3","[1]; 40 mg, Example 2b N = 40",(5) %
same,"Febrile neutropenia, treatment related ≥grade 3","[1]; 40 mg, Example 2b N = 40",(5) %
same,"General disorders and administration site conditions, treatment related ≥grade 3","[1]; 40 mg, Example 2b N = 40",(17.5) %
same,"Hyperglycemia, treatment related grade 4","[1]; 40 mg, Example 2b N = 40",(3) %
same,"Hyperglycemia, treatment related ≥grade 3","[1]; 40 mg, Example 2b N = 40",(8) %
same,"Infections and infestations, treatment related ≥grade 3","[1]; 40 mg, Example 2b N = 40",(5) %
same,"Investigations, treatment related ≥grade 3","[1]; 40 mg, Example 2b N = 40",(12.5) %
same,"Metabolism and nutrition disorders, treatment related grade 4","[1]; 40 mg, Example 2b N = 40",(3) %
same,"Metabolism and nutrition disorders, treatment related ≥grade 3","[1]; 40 mg, Example 2b N = 40",(8) %
same,"Neutropenia, treatment related grade 4","[1]; 40 mg, Example 2b N = 40",(30) %
same,"Neutropenia, treatment related ≥grade 3","[1]; 40 mg, Example 2b N = 40",58%
same,"Neutrophil count decreased, treatment related ≥grade 3","[1]; 40 mg, Example 2b N = 40",(10) %
same,"Pneumonia, treatment related ≥grade 3","[1]; 40 mg, Example 2b N = 40",(5) %
same,"Pyrexia, treatment related ≥grade 3","[1]; 40 mg, Example 2b N = 40",(5) %
same,"Thrombocytopenia, treatment related grade 4","[1]; 40 mg, Example 2b N = 40",(40) %
same,"Thrombocytopenia, treatment related ≥grade 3","[1]; 40 mg, Example 2b N = 40",63%
same,"White blood cell count decreased, treatment related ≥grade 3","[1]; 40 mg, Example 2b N = 40",(5) %
same,"Anemia, treatment related ≥grade 3",[1]; [5],(43) %
same,"Any treatment-related grade 3 and/or grade 4, ≥grade 3",[1]; [5],(85) %
same,"Neutropenia, treatment related ≥grade 3",[1]; [5],(57.5) %
same,"Thrombocytopenia, treatment related ≥grade 3",[1]; [5],(62.5) %
same,patients with Serious TEAEs,"[1]; 40 mg, Example 2b, 40 patients",40%
same,patients with treatment-related Serious TEAEs,"[1]; 40 mg, Example 2b, 40 patients",30%
same,median number of cycles before discontinuation due to bone marrow suppression,[1]; 14 patients,3.5 cycles
same,Cycles with a dose interruption,[1]; [6],(37) % of total
same,Patients with a dose interruption,[1]; [6],(57) % of total
same,Patients with a dose reduction,[1]; [6],(37) % of total
same,Cycles with a dose interruption,[1]; [7],(13) % of total
same,Patients with a dose interruption,[1]; [7],(30) % of total
same,Patients with a dose reduction,[1]; [7],(20) % of total
same,incidence of Grade 3-4 pneumonia,[1]; Example 2b,14%
same,infectious adverse effects with fatal outcomes possibly related to the study treatments,[1]; Example 2b,8%
same,"infectious adverse effects with fatal outcomes possibly related to the study treatments, n patients",[1]; Example 2b,3
same,patients with TEAEs leading to dose reduction of melflufen from 40 mg to 25 mg,"[1]; Example 2b, 40 patients",32.5%
same,effect on renal function,"[1]; MM patients, clinical trials",does not appear to have any effect on renal function
same,"reports of syncope, seizures, ventricular arrhythmias, ventricular tachycardia, ventricular fibrillation, flutter, torsade de pointes, or sudden deaths",[1]; in the clinical trials,no reports
same,dose reductions in connection to both thrombocytopenia and neutropenia,[1]; [8],9%
same,"dose reductions in connection to both thrombocytopenia and neutropenia, n patients",[1]; [8],1
same,dose reductions in connection to neutropenia,[1]; [8],27%
same,"dose reductions in connection to neutropenia, n patients",[1]; [8],3
same,dose reductions in connection to thrombocytopenia,[1]; [8],64%
same,"dose reductions in connection to thrombocytopenia, n patients",[1]; [8],7
same,treatment discontinuations due to treatment-related bone marrow suppression,[1]; [9],35%
same,"treatment discontinuations due to treatment-related bone marrow suppression, n patients",[1]; [9],14
same,"fatal events while on treatment or within 30 days of last dose, n patients",[1]; of the 57 patients in the ongoing melflufen study,6
same,cytotoxic activity in primary MM cells,[2],Potent cytotoxic activity
